Reference: patent publication US9302988B2, “Fluoromethyl-substituted pyrrole carboxamides” (GRÜNENTHAL GMBH, priority 2012, dated 2016)

target: T1, Human CaV2.2 channels (Homo sapiens, UniProt Q00975); assay: Fluorescent assay for CaV2.2 channels using potassium depolarization to induce channel opening (FLIPR, Fluo-4); format: cell-based; conditions: 3 μM test compound, 30 mM KCl, HEK293 cells stably expressing human CaV2.2; read-out: %-Inhib (CaV2.2) @3 μM @30 mM KCl
T1 construct: expressed in transfected cells
T1 sequence (Q00975 whole entry): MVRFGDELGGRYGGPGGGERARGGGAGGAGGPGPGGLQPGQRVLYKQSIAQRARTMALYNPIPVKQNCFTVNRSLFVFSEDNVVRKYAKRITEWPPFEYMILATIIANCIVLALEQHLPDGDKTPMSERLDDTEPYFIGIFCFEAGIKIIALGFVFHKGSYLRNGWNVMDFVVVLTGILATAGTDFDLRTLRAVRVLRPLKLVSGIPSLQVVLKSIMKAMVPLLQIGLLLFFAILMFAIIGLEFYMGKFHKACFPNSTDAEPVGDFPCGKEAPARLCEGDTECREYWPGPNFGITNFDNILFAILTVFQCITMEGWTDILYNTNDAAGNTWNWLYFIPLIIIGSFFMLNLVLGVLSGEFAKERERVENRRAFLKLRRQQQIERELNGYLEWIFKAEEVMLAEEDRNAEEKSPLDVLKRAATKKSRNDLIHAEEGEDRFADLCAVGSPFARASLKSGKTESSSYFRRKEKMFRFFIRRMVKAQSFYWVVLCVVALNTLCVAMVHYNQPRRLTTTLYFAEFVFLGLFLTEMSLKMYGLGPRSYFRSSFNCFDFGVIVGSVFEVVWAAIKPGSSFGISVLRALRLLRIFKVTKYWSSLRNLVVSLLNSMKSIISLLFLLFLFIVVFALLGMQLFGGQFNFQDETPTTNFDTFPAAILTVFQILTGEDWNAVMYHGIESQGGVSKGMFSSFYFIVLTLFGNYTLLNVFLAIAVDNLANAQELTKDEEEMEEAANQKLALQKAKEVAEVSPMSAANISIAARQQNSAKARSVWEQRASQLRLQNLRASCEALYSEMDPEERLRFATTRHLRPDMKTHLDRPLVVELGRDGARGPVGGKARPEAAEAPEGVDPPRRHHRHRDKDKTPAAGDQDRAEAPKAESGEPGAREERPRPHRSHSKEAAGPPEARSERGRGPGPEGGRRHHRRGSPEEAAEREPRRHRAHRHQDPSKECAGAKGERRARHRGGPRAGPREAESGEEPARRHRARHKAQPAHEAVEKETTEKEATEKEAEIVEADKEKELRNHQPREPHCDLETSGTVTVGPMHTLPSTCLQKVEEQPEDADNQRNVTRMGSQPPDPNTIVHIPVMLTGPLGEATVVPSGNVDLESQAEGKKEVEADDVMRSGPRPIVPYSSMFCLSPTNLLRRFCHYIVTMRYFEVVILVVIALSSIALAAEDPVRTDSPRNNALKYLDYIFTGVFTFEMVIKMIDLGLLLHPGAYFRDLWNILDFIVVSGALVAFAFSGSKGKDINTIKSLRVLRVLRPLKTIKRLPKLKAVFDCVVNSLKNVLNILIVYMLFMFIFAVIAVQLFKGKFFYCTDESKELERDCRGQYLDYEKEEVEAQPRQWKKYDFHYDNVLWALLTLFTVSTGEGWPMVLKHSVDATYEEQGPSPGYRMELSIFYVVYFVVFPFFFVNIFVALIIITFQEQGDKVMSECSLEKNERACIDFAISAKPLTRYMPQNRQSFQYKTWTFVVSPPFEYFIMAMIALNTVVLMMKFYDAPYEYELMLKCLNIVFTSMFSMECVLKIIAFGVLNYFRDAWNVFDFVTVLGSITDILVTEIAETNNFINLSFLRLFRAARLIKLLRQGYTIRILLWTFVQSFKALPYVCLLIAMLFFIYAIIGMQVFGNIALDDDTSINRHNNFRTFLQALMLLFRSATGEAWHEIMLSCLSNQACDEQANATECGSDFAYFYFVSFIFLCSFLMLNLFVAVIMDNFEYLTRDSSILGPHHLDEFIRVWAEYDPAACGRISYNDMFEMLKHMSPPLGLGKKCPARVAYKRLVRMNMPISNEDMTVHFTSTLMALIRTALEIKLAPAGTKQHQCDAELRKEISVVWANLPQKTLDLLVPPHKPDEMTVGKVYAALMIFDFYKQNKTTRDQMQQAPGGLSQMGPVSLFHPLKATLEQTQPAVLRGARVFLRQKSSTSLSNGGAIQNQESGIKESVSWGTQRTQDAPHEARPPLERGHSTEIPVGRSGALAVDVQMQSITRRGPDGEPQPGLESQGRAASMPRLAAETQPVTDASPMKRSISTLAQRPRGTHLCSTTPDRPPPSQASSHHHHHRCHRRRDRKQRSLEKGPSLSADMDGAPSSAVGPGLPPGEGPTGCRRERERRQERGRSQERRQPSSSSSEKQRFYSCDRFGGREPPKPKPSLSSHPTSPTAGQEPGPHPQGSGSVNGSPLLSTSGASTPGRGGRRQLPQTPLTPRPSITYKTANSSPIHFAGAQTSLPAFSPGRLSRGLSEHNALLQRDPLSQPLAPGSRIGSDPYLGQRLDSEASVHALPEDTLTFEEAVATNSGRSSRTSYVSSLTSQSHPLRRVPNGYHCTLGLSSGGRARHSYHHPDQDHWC
T1 sequence (P54289 25-1103, further chain): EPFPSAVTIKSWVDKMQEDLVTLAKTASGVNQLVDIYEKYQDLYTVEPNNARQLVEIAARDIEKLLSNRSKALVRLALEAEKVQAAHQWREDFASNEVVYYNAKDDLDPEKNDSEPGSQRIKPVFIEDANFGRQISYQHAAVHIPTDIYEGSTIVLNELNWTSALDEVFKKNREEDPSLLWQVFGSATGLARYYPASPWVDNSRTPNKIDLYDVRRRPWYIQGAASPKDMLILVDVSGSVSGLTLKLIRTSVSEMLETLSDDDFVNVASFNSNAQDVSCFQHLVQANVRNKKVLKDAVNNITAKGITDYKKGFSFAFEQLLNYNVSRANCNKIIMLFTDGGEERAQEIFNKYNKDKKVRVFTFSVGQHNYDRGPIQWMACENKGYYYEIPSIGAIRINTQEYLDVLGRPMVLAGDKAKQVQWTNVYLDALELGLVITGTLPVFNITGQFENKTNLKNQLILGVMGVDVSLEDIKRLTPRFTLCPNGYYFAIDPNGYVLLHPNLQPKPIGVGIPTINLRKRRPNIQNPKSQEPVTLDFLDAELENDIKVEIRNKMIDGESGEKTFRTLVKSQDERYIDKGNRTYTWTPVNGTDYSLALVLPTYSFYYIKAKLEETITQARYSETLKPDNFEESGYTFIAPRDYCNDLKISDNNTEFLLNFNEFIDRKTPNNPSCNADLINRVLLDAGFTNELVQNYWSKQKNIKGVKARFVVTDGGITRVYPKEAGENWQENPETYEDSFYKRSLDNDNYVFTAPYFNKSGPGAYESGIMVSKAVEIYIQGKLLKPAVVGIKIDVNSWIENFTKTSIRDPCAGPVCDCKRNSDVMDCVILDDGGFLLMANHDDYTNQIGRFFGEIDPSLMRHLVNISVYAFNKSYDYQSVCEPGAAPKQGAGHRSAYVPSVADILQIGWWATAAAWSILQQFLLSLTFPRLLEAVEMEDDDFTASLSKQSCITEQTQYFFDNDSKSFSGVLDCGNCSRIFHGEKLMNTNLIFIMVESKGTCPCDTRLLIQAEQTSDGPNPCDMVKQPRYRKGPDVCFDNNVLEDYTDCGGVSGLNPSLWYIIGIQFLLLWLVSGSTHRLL
T1 sequence (P54284 whole entry, further chain): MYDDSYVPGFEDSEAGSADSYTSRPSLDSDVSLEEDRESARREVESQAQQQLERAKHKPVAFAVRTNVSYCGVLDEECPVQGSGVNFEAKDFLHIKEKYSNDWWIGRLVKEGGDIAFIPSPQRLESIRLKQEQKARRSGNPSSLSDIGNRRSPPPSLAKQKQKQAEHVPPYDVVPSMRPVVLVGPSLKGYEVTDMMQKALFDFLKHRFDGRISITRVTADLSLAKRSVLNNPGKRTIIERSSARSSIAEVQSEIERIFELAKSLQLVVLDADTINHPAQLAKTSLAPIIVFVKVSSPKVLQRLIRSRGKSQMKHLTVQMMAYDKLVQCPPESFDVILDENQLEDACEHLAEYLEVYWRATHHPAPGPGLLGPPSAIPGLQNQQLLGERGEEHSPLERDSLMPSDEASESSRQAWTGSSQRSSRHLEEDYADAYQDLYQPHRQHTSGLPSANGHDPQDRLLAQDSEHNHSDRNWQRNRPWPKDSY
How it was run: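 Channel block was read as the baseline-normalized peak Ca²⁺ signal (Fluo-4, 480/535 nm) after a high-KCl depolarizing addition (210 mM KCl buffer). Beforehand, compound sat 15 min at 25 °C on HEK293 cells carrying human CaV2.2, α2δ/β subunits and Kir2.3, in pH 7.4 buffer with 30 mM KCl.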

SMILES	inhibition at 3 µM
Cc1c(-c2ccc(Cl)cc2)c(C(=O)N(C)CC(C)(C)O)n(Cc2cccc(Cl)c2)c1C(F)(F)F [SC-57, 3-(4-Chlorophenyl)-1-[(3-chlorophenyl)-methyl]-N-(2-hydroxy-2-methyl-propyl)-N,4-dimethyl-5-(trifluoromethyl)-1H-pyrrole-2-carboxylic acid amide]	> 95%
CN(CC1CCC[C@@H]1O)C(=O)c1c(-c2ccc(Cl)cc2)cc(C(F)(F)F)n1Cc1ccccc1 (stereo partly drawn) [SC-199, 1-Benzyl-3-(4-chlorophenyl)-N-[[(2S)-2-hydroxy-cyclopentyl]-methyl]-N-methyl-5-(trifluoromethyl)-1H-pyrrole-2-carboxylic acid amide]	> 95%
Cc1c(-c2ccc(Cl)cc2)c(C(=O)N2CC(F)(F)C2)n(-c2ccc(Cl)cc2)c1C(F)(F)F [SC-44, [1,3-Bis(4-chlorophenyl)-4-methyl-5-(trifluoromethyl)-1H-pyrrol-2-yl]-(3,3-difluoro-azetidin-1-yl)-methanone]	75 to 95%
Cc1c(-c2ccc(Cl)cc2)c(C(=O)N2CCC(O)C2)n(Cc2ccccc2)c1C(F)(F)F (stereo not shown) [SC-23, [1-Benzyl-3-(4-chlorophenyl)-4-methyl-5-(trifluoromethyl)-1H-pyrrol-2-yl]-(3-hydroxy-pyrrolidin-1-yl)-methanone]	75 to 95%
Cc1c(-c2ccc(Cl)cc2F)c(C(=O)N(C)CC(C)(C)C)n(Cc2ccccc2)c1C(F)(F)F [SC-59, 1-Benzyl-3-(4-chloro-2-fluoro-phenyl)-N-(2,2-dimethyl-propyl)-N,4-dimethyl-5-(trifluoromethyl)-1H-pyrrole-2-carboxylic acid amide]	> 95%
Cc1nnc(CN(C)C(=O)c2c(-c3ccc(Cl)cc3)c(C)c(C(F)(F)F)n2Cc2ccccc2)o1 [SC-143, 1-Benzyl-3-(4-chlorophenyl)-N,4-dimethyl-N-[(5-methyl-[1,3,4]oxadiazol-2-yl)-methyl]-5-(trifluoromethyl)-1H-pyrrole-2-carboxylic acid amide]	> 95%
Cc1c(-c2ccc(Cl)cc2)c(C(=O)N(C)CC2CCCCO2)n(Cc2ccccc2)c1C(F)(F)F (stereo not shown) [SC-138, 1-Benzyl-3-(4-chlorophenyl)-N,4-dimethyl-N-(tetrahydro-pyran-2-yl-methyl)-5-(trifluoromethyl)-1H-pyrrole-2-carboxylic acid amide]	75 to 95%
Cc1c(-c2ccc(Cl)cc2F)c(C(=O)N(C)CC2CCCO2)n(Cc2ccccc2)c1C(F)(F)F (stereo not shown) [SC-165, 1-Benzyl-3-(4-chloro-2-fluoro-phenyl)-N,4-dimethyl-N-(tetrahydro-furan-2-yl-methyl)-5-(trifluoromethyl)-1H-pyrrole-2-carboxylic acid amide]	> 95%
CCN(CCS(C)(=O)=O)C(=O)c1c(-c2ccc(Cl)cc2)c(C)c(C(F)(F)F)n1Cc1ccccc1 [SC-128, 1-Benzyl-3-(4-chlorophenyl)-N-ethyl-4-methyl-N-(2-methylsulfonyl-ethyl)-5-(trifluoromethyl)-1H-pyrrole-2-carboxylic acid amide]	> 95%
Cc1c(-c2ccc(C(F)(F)F)cc2)c(C(=O)N(C)CC(C)(C)CO)n(Cc2ccccc2)c1C(F)(F)F [SC-227, 1-Benzyl-N-(3-hydroxy-2,2-dimethyl-propyl)-N,4-dimethyl-5-(trifluoromethyl)-3-[4-(trifluoromethyl)-phenyl]-1H-pyrrole-2-carboxylic acid amide]	75 to 95%
CN(CC1(CO)CC1)C(=O)c1c(-c2ccc(Cl)cc2)cc(C(F)(F)F)n1Cc1ccccc1 [SC-178, 1-Benzyl-3-(4-chlorophenyl)-N-[[1-(hydroxymethyl)-cyclopropyl]-methyl]-N-methyl-5-(trifluoromethyl)-1H-pyrrole-2-carboxylic acid amide]	> 95%
Cc1c(-c2ccc(Cl)cc2F)c(C(=O)N(C)CC(C)(C)CO)n(Cc2ccccc2)c1C(F)(F)F [SC-107, 1-Benzyl-3-(4-chloro-2-fluoro-phenyl)-N-(3-hydroxy-2,2-dimethyl-propyl)-N,4-dimethyl-5-(trifluoromethyl)-1H-pyrrole-2-carboxylic acid amide]	> 95%
CN(CC(C)(C)C(N)=O)C(=O)c1c(-c2ccc(Cl)cc2)cc(C(F)(F)F)n1Cc1ccccc1 [SC-174, 1-Benzyl-N-(2-carbamoyl-2-methyl-propyl)-3-(4-chlorophenyl)-N-methyl-5-(trifluoromethyl)-1H-pyrrole-2-carboxylic acid amide]	> 95%
Cc1c(-c2ccc(Cl)cc2)c(C(=O)N(C)CCC2CCCO2)n(Cc2ccccc2)c1C(F)(F)F (stereo not shown) [SC-133, 1-Benzyl-3-(4-chlorophenyl)-N,4-dimethyl-N-(2-tetrahydro-furan-2-yl-ethyl)-5-(trifluoromethyl)-1H-pyrrole-2-carboxylic acid amide]	> 95%
Cc1c(-c2ccc(Cl)cc2F)c(C(=O)NCCS(C)(=O)=O)n(Cc2ccccc2)c1C(F)(F)F [SC-163, 1-Benzyl-3-(4-chloro-2-fluoro-phenyl)-4-methyl-N-(2-methylsulfonyl-ethyl)-5-(trifluoromethyl)-1H-pyrrole-2-carboxylic acid amide]	> 95%
Cc1c(-c2ccc(Cl)cc2)c(C(=O)N(C)CCO)n(Cc2ccccc2)c1C(F)(F)F [SC-24, 1-Benzyl-3-(4-chlorophenyl)-N-(2-hydroxy-ethyl)-N,4-dimethyl-5-(trifluoromethyl)-1H-pyrrole-2-carboxylic acid amide]	> 95%
Cc1c(-c2ccc(Cl)cc2F)c(C(=O)N(C)C2CCOCC2)n(Cc2ccccc2)c1C(F)(F)F [SC-156, 1-Benzyl-3-(4-chloro-2-fluoro-phenyl)-N,4-dimethyl-N-tetrahydro-pyran-4-yl-5-(trifluoromethyl)-1H-pyrrole-2-carboxylic acid amide]	> 95%
O=C1CN(C(=O)c2c(-c3ccc(Cl)cc3)cc(C(F)(F)F)n2Cc2ccccc2)CCN1 [SC-66, 4-[1-Benzyl-3-(4-chlorophenyl)-5-(trifluoromethyl)-1H-pyrrole-2-carbonyl]-piperazin-2-one]	75 to 95%
Cc1c(-c2ccc(Cl)cc2)c(C(=O)N(C)CC(C)(C)C)n(Cc2ccccc2)c1C(F)(F)F [SC-04, 1-Benzyl-3-(4-chlorophenyl)-N-(2,2-dimethyl-propyl)-N,4-dimethyl-5-(trifluoromethyl)-1 H-pyrrole-2-carboxylic acid amide]	75 to 95%
Cc1cc(CN(C)C(=O)c2c(-c3ccc(Cl)cc3)c(C)c(C(F)(F)F)n2Cc2ccccc2)on1 [SC-140, 1-Benzyl-3-(4-chlorophenyl)-N,4-dimethyl-N-[(3-methyl-isoxazol-5-yl)-methyl]-5-(trifluoromethyl)-1H-pyrrole-2-carboxylic acid amide]	> 95%
CS(=O)(=O)C1CCN(C(=O)c2c(-c3ccc(Cl)cc3)cc(C(F)(F)F)n2Cc2ccccc2)C1 (stereo not shown) [SC-185, [1-Benzyl-3-(4-chlorophenyl)-5-(trifluoromethyl)-1H-pyrrol-2-yl]-(3-methylsulfonyl-pyrrolidin-1-yl)-methanone]	> 95%
Cc1c(-c2ccc(Cl)cc2)c(C(=O)N2CCOC(C)(C)C2)n(Cc2ccccc2)c1C(F)(F)F [SC-40, [1-Benzyl-3-(4-chlorophenyl)-4-methyl-5-(trifluoromethyl)-1H-pyrrol-2-yl]-(2,2-dimethyl-morpholin-4-yl)-methanone]	> 95%
